From patent US20260345584A1, “METHODS AND PHARMACEUTICAL COMPOSITIONS FOR TREATING CHEMOTHERAPY-INDUCED PERIPHERAL NEUROPATHY WITH EG5 INHIBITORS” (UNIVERSITY OF MIAMI, priority 2023, published 2026)

How the values were obtained:
suprabasal keratinocytes = test: dfMT formation in mouse epidermis; assay type: in vivo; details: single injection 20 mg/kg
Method: The mice in each cage were randomly allocated to different treatment groups. Food and water were available ad libitum and experiments were performed during the light cycle (7:00 am to 7:00 pm). Animals were euthanized via CO2 asphyxiation, followed by cervical dislocation. […] The animal's husbandry conformed with established NIH and Institutional Animal Care and Use Committee (IACUC) approved protocols.
Paws and back skin were collected at predetermined time points, placed in 10% formalin, and stored overnight at 4 °C. Samples were embedded in paraffin and sectioned at 7 μm, deparaffinized, washed with PBS, and incubated at room temperature for 5 min in 0.1% Triton X-100 in PBS and then blocked for 30 min (5% BSA). Sections were incubated with primary antibody diluted in blocking solution, overnight at 4 °C in a humidity chamber. Following PBS washes, sections were incubated for 1 h at room temperature with a secondary antibody. Tissues were mounted and assessed for staining. Antibodies used were against detyrosinated tubulin Millipore AB3201, p-KIF11 Invitrogen PA5-38647, alpha-tubulin Proteintech 66031-1-Ig, mouse Alexa Fluor 488 Invitrogen A21202, and rabbit Alexa flour 546 Invitrogen A10040. DAPI was used for nuclei counterstaining. […]

mmp13a = test: qPCR mmp13 expression, whole larvae; assay type: in vivo, zebrafish; details: wildtype, 48 hr paclitaxel
Method: Zebrafish larvae (AB/Nacre) were treated in pools of ~20-30 larvae per treatment per biological replicate (BR); each BR consisted of embryos from distinct parents. Larvae were collected into 1.5 ml reaction tubes post-treatment and RNA extraction was performed using the rNeasy Plus Micro kit (Qiagen, Cat. No. 74034). cDNA was synthesized from ~300 ng total RNA using the Superscript IV VILO kit (Thermo Fisher, Cat. No. 11756050). Primers in target genes were designed wherein primers annealed in two exons separated by one or several large introns that could not be amplified with the selected PCR settings, to avoid genomic DNA contamination. Quantitative PCR was performed with the Applied Biosystems QuantStudio 3 using PowerUp SYBR Green (ThermoFisher, Cat No. A25741). Amplification signals for expressed target genes were normalized to zebrafish 18S rRNA signals. qPCR conditions were used as follows: 95 °C for 10 minutes, 40 cycles of 95 °C for 15 seconds, 50 °C for 30 seconds, 72 °C for 30 seconds. Each biological replicate was run in quadruplicate. Data were presented as relative expression compared to control using the delta-vdelta Ct (2^^-ΔΔCt) method.
Stretching was performed after 96 hr treatment, followed by 2 hr post-stretch fixation, and staining for detection of acetylated tubulin in axons.

[1] = system: Tau-Bfp2 microtubules in keratinocytes; test: Tau-Bfp2-stabilized microtubules in keratinocytes; assay type: in vivo, zebrafish; details: 96 hr
Method: Fish were anesthetized in 2-phenoxyethanol (1:1000) in Ringer's solution prior to imaging and mounted in 1.2% agarose. EB3-GFP and Tau-Bfp2 were imaged with a scan speed kept at the maximum level in single slice mode with […] for a total of 60s to capture microtubule dynamics. h2a:H2A-GFP time-lapse recordings were produced (Zeiss LSM880 AiryScan confocal microscope) with 1 μm sections recorded every 10 min for 12 hr using 800×800 pixels. All other live fish were imaged using 1024×1024 pixels.
Microtubule analyses was performed in Imaris 9.5.1 (Bitplane) by measuring the straightness of filaments (microtubules) using the “Filaments—Dendrite Straightness” tool, which was defined as the ratio between […] between two branch points (h). The value was always smaller than 1 since the Dendrite Straightness of 1 defines straight objects.
EB3-GFP tracking was done in Fiji using the MTrackJ plugin to trace microtubules over time and create Kymographs, measure the velocity, track length, and comet duration. Tracking was also performed using the Spots and Surface tools in Imaris. Settings were initially automatically detected to fit the fluorescence and subsequently modified manually for improved fit. Settings were maintained between treatment groups.
Tau therefore seems to prevent paclitaxel-induced dfMT formation.
Thus EB3-GFP plus-ends appeared in part to grow along pre-existing stable microtubules, which could be a means to maintain cellular organization.

CC(=O)O[C@H]1C(=O)[C@@]2(C)[C@H]([C@H](OC(=O)c3ccccc3)[C@]3(O)C[C@H](OC(=O)[C@H](O)[C@@H](NC(=O)c4ccccc4)c4ccccc4)C(C)=C1C3(C)C)[C@]1(OC(C)=O)CO[C@@H]1C[C@@H]2O [paclitaxel]
dfMT formation in mouse epidermis (suprabasal keratinocytes): resulted in dfMT formation in a subset of suprabasal keratinocytes | mmp13 expression (mmp13a): increased mmp13 expression | EB3-GFP puncta co-localized with Tau-Bfp2 ([1]; Tau-Bfp2 + 22 μM paclitaxel): 91.26±1.64% | velocity of EB3-GFP plus-ends ([1]; Tau-Bfp2 + paclitaxel): 0.184±0.003 μm/s | microtubule straightness (1=straight, 0=curved) ([1]; strong Tau-Bfp2 + paclitaxel): 0.98±0.002
